Source: patent US5565342A (priority 1989, dated 1996)

What follows are compounds tested on RON substance synthetase (assay: Inhibition and activation of the enzyme by metal chlorides). Conditions: 1 mM metal chloride; not added = 100; 30 min.
Format: biochemical, Leuconostoc mesenteroides subsp. dextranicum, BL-75
Procedure: A substrate solution comprising sucrose (60 w/v %) and an acetate buffer (0.3M, pH 5.5), which was warmed to 30° C. in advance, was mixed with an enzyme solution (0.5 to 1 U/ml) warmed to 30° C. in an amount 4 times the amount of the substrate solution, and the mixture was sufficiently stirred and the reaction was carried out at 30° C. for 30 minutes. To the reaction mixture a 40 mM of NaOH solution was added in an amount 5 times of the amount of the reaction mixture to stop the reaction. The reaction-stopped mixture was appropriately diluted and reducing sugar was determined as fructose by the Somogyi method [M. Somogyi, J. Biol. Chem., 160, 61 (1945)]. As the control, reducing sugar in the enzyme reaction-stopped mixture treated in the same manner without adding sucrose was determined as fructose, and correction was carried out. The quantity of sucrose participating in the reaction was determined from the quantity of fructose.
The relative activities at the addition of the different metal chlorides in the final concentration of 1 mM were determined by the standard method. The relative value was expressed in percent comparing with the activity without addition of any metal chloride.

SMILES	Relative Activity
[Ca+2].[Cl-].[Cl-] [CaCl2]	110%
[Cl-].[Cl-].[Co+2] [CoCl2]	95%
[Cl][Cu][Cl] [CuCl2]	50%
[Cl][Fe][Cl] [FeCl2]	103%
[Cl][Fe]([Cl])[Cl] [FeCl3]	82%
[Cl-].[Cl-].[Mg+2] [MgCl2]	78%
[Cl][Mn][Cl] [MnCl2]	75%
[Cl][Ni][Cl] [NiCl2]	98%
[Cl-].[Cl-].[Zn+2] [ZnCl2]	93%

These compounds were tested on RON substance synthetase (assay: Substrate specificity of the enzyme). Conditions: as substrate of the enzyme.
Format: biochemical, Leuconostoc mesenteroides subsp. dextranicum, BL-75

SMILES	Formation of the RON substance (substrate specificity)
OC[C@H]1O[C@H](O[C@H]2[C@H](O)[C@@H](O)C(O)O[C@@H]2CO)[C@H](O)[C@@H](O)[C@@H]1O (mixture of isomers) [maltose]	not observed
O=C(CO)[C@@H](O)[C@H](O)[C@H](O)CO [fructose]	not observed
OC[C@H]1OC(O)[C@H](O)[C@@H](O)[C@@H]1O (some centres unmarked) [glucose]	not observed
OC[C@H]1O[C@H](OC[C@H]2OC(O)[C@H](O)[C@@H](O)[C@@H]2O)[C@H](O)[C@@H](O)[C@@H]1O (some centres unmarked) [isomaltose]	not observed
OC[C@H]1O[C@@](CO)(O[C@H]2O[C@H](CO)[C@@H](O)[C@H](O)[C@H]2O)[C@@H](O)[C@@H]1O [sucrose]	reacts only with sucrose
